# From patent US9198918B2, “Benzoxazepin PI3K inhibitor compounds and methods of use” (Genentech, Inc., priority 2009, dated 2015)
# How the values were obtained:
# PI3K alpha (p110 alpha) = molecular target: T1, PI3K alpha (p110 alpha) (Homo sapiens, UniProt P42336); test: PI3K p110α (alpha) binding assay (Example 901); conditions: for IC50: read-out: IC50, inhibition of PI3K alpha (binding to p110 alpha)
# T1 construct: purchased Upstate Cell Signaling Solutions, Charlottesville, Va
# Text: Determination of the PI3 kinase activity of a Formula I compound is possible by a number of direct and indirect detection methods.
# EVSA-T = test: CellTiter-Glo cell proliferation assay, EVSA-T; format: cell-based; conditions: Homo sapiens, Breast, mutation status PTEN
# Description: (§1) Efficacy of Formula I compounds was measured by a cell proliferation assay employing the following protocol (Promega Corp. Technical Bulletin TB288; Mendoza et al (2002) Cancer Res. 62:5485-5488):
# (§2) 1. An aliquot of 100 μl of cell culture containing about 104 cells (PC3, Detroit562, or MDAMB361.1) in medium was deposited in each well of a 384-well, opaque-walled plate.
# (§3) 2. Control wells were prepared containing medium and without cells.
# (§4) 3. The compound was added to the experimental wells and incubated for 3-5 days.
# (§5) 4. The plates were equilibrated to room temperature for approximately 30 minutes.
# (§6) 5. A volume of CellTiter-Glo Reagent equal to the volume of cell culture medium present in each well was added.
# (§7) 6. The contents were mixed for 2 minutes on an orbital shaker to induce cell lysis.
# (§8) 7. The plate was incubated at room temperature for 10 minutes to stabilize the luminescence signal.
# (§9) 8. Luminescence was recorded and reported in graphs as RLU=relative luminescence units.
# (§10) Alternatively, cells were seeded at optimal density in a 96 well plate and incubated for 4 days in the presence of test compound. Alamar Blue™ was subsequently added to the assay medium, and cells were incubated for 6 hr before reading at 544 nm excitation, 590 nm emission. EC50 values were calculated using a sigmoidal dose response curve fit. The term EC50 refers to the half maximal effective concentration and is the concentration at which a drug induces a response halfway between the baseline and maximum after some specified exposure time. It is commonly used as a measure of drug potency.
# (§11) The anti-proliferative effects of Formula I exemplary compounds were measured by the CellTiter-Glo® Assay against various tumor cell lines, including the following: […]
# AU565 = test: CellTiter-Glo cell proliferation assay, AU565; format: cell-based; conditions: Homo sapiens, Breast, mutation status WT
# Description: as §1, §2, §3, §4, §5, §6, §7, §8, §9, §10, §11
# PC3 = test: CellTiter-Glo cell proliferation assay, PC3; format: cell-based; conditions: Homo sapiens, PC-3, Prostate, mutation status PTEN
# Description: as §1, §2, §3, §4, §5, §6, §7, §8, §9, §10, §11
# MDA-MB-361.1 = test: CellTiter-Glo cell proliferation assay, MDA-MB-361.1; format: cell-based; conditions: Breast, mutation status PI3K
# Description: as §1, §2, §3, §4, §5, §6, §7, §8, §9, §10, §11
# KPL4 = test: CellTiter-Glo cell proliferation assay, KPL4; format: cell-based; conditions: Breast, mutation status PI3K
# Description: as §1, §2, §3, §4, §5, §6, §7, §8, §9, §10, §11
# BT474 = test: CellTiter-Glo cell proliferation assay, BT474; format: cell-based; conditions: Homo sapiens, BT-474, Breast, mutation status PI3K(amped)
# Description: as §1, §2, §3, §4, §5, §6, §7, §8, §9, §10, §11
# HCC1954 = test: CellTiter-Glo cell proliferation assay, HCC1954; format: cell-based; conditions: Homo sapiens, Breast, mutation status PI3K
# Description: as §1, §2, §3, §4, §5, §6, §7, §8, §9, §10, §11
# T47D = test: CellTiter-Glo cell proliferation assay, T47D; format: cell-based; conditions: Homo sapiens, Breast, mutation status PI3K
# Description: as §1, §2, §3, §4, §5, §6, §7, §8, §9, §10, §11
# SKBR3 = test: CellTiter-Glo cell proliferation assay, SKBR3; format: cell-based; conditions: Homo sapiens, SK-BR-3, Breast, mutation status WT
# Description: as §1, §2, §3, §4, §5, §6
# 6. […]
# as §8, §9
# (§12) Alternatively, cells were seeded at optimal density in a 96 well plate and incubated for 4 days in the presence of test compound. Alamar Blue™ was subsequently added to the assay medium, and cells were incubated for 6 hr before reading at 544 nm excitation, 590 nm emission. EC50 values were calculated using a sigmoidal dose response curve fit. […]
# as §11
# MFM223 = test: CellTiter-Glo cell proliferation assay, MFM223; format: cell-based; conditions: Homo sapiens, MFM-223, Breast, mutation status PI3K
# Description: as §1, §2, §3, §4, §5, §6, §7, §8, §9, §10, §11
# H2122 = test: CellTiter-Glo cell proliferation assay, H2122; format: cell-based; conditions: Homo sapiens, NCI-H2122, Lung(NSCLC), mutation status K-RAS
# Description: as §1, §2, §3, §4, §5, §6, §7, §8, §9, §10, §11
# A375 = test: CellTiter-Glo cell proliferation assay, A375; format: cell-based; conditions: Homo sapiens, A-375, Melanoma, mutation status B-Raf
# Description: as §1, §2, §3, §4, §5, §6
# 6. […]
# as §8, §9, §12, §11
# MDST8 = test: CellTiter-Glo cell proliferation assay, MDST8; format: cell-based; conditions: Colon, mutation status PTEN
# Description: as §1, §2, §3, §4, §5, §6
# 6. […]
# as §8, §9, §12, §11
# U87MG = test: CellTiter-Glo cell proliferation assay, U87MG; format: cell-based; conditions: Homo sapiens, U-87 MG, Glioma, mutation status PTEN
# Description: as §1, §2, §3, §4, §5, §6
# 6. […]
# as §8, §9, §12, §11
# H520 = test: CellTiter-Glo cell proliferation assay, H520; format: cell-based; conditions: Homo sapiens, NCI-H520, Lung(NSCLC), mutation status PTEN
# Description: as §1, §2, §3, §4, §5, §6
# 6. […]
# as §8, §9, §12, §11
# KM12 = test: CellTiter-Glo cell proliferation assay, KM12; format: cell-based; conditions: Homo sapiens, Colon, mutation status PTEN
# Description: as §1, §2, §3, §4, §5, §6
# 6. […]
# as §8, §9, §12, §11
# T1 sequence (P42336 whole entry): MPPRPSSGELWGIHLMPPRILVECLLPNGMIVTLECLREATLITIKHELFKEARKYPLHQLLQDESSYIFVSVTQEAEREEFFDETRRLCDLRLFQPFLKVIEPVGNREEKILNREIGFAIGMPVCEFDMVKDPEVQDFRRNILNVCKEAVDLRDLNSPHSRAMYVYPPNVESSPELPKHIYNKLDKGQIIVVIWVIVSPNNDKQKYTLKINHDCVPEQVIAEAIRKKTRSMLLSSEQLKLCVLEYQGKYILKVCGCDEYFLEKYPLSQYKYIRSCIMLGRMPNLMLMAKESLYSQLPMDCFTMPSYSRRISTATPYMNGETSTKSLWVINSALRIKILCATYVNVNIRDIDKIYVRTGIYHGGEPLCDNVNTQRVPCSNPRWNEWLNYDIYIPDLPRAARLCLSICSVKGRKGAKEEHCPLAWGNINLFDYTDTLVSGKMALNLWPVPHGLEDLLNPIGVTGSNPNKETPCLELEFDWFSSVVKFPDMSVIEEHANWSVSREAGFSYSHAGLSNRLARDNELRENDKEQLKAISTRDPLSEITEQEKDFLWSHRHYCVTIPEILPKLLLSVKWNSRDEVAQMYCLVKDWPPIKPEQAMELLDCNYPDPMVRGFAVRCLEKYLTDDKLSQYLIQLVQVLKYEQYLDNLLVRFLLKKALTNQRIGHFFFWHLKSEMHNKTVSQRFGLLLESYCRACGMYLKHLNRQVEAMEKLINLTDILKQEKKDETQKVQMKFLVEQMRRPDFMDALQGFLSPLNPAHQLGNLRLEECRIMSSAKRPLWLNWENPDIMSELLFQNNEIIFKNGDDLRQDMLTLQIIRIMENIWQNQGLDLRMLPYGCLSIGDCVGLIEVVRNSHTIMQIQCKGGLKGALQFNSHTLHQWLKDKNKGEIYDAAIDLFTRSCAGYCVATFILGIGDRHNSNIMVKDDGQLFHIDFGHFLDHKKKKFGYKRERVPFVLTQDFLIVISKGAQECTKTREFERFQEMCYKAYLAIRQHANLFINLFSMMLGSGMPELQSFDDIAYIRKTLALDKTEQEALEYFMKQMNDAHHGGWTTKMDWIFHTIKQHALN
# T1 sequence (P27986 whole entry partner): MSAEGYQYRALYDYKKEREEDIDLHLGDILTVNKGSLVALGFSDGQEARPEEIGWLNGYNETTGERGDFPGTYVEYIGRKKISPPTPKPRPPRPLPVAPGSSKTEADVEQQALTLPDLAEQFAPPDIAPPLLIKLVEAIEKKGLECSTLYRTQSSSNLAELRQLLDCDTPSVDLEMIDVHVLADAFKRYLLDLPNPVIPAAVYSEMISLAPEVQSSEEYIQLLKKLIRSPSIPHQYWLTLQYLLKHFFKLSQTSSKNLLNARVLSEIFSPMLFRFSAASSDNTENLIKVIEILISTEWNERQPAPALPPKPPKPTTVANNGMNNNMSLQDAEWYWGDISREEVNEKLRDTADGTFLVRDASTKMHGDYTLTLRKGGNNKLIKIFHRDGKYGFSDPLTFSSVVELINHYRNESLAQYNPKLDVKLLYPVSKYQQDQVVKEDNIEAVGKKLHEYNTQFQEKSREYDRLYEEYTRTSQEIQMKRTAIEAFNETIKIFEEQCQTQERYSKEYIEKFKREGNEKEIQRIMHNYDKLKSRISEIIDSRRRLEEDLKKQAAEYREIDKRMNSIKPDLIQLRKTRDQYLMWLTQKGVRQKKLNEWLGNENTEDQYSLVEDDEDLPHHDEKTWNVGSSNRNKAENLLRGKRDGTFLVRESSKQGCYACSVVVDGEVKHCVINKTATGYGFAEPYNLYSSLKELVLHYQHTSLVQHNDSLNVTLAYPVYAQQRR
structure (smiles),measurement,setting,value
"CN(C(=O)c1cc2n(n1)-c1ccccc1OCC2)c1ccc(F)cc1F [compound 101, N-(2,4-difluorophenyl)-N-methyl-4,5-dihydrobenzo[b]pyrazolo[1,5-d][1,4]oxazepine-2-carboxamide]",IC50,PI3K alpha (p110 alpha),770 nM
"NC(=O)c1ccc2c(c1)-c1nc(-c3ncnn3-c3ccccc3Cl)cn1CCO2 [compound 102, 2-(1-(2-chlorophenyl)-1H-1,2,4-triazol-5-yl)-5,6-dihydrobenzo[f]imidazo[1,2-d][1,4]oxazepine-10-carboxamide]",IC50,PI3K alpha (p110 alpha),3 nM
"Fc1ccc(-n2ncnc2-n2cc3c(n2)-c2ccc(Br)cc2OCC3)c(F)c1 [compound 103, 2-(1-(2,4-difluorophenyl)-1H-1,2,4-triazol-5-yl)-8-bromo-4,5-dihydrobenzo-2H-oxepino[4,5-d]pyrazole]",IC50,PI3K alpha (p110 alpha),58 nM
"NC(=O)c1ccc2c(c1)OCCc1cn(-c3ncnn3-c3ccc(F)cc3F)nc1-2 [compound 107, 2-(1-(2,4-difluorophenyl)-1H-1,2,4-triazol-5-yl)-4,5-dihydrobenzo-2H-oxepino[4,5-d]pyrazole-8-carboxamide]",EC50,EVSA-T,1410 nM
same,EC50,AU565,259 nM
same,EC50,PC3,999 nM
same,EC50,MDA-MB-361.1,1050 nM
"Clc1ccccc1-n1ncnc1-n1cc2c(n1)-c1cc(C3CCNCC3)ccc1OCC2 [compound 154, 2-(1-(2-chlorophenyl)-1H-1,2,4-triazol-5-yl)-9-piperid-4-yl-4,5-dihydrobenzo-2H-oxepino[4,5-d]pyrazole]",IC50,PI3K alpha (p110 alpha),0.91 nM
"CC(C)n1ncnc1-c1cc2n(n1)-c1cc(C3CN(C(C)(C)CO)C3)ccc1OCC2 [compound 170, 2-(3-(2-(1-isopropyl-1H-1,2,4-triazol-5-yl)-4,5-dihydrobenzo[b]pyrazolo[1,5-d][1,4]oxazepin-9-yl)azetidin-1-yl)-2-methylpropan-1-ol]",IC50,PI3K alpha (p110 alpha),22 nM
"CS(=O)(=O)CCN1CC(c2ccc3c(c2)OCCc2cn(-c4ncnn4-c4ccc(F)cc4F)nc2-3)C1 [compound 171, 2-(1-(2,4-difluorophenyl)-1H-1,2,4-triazol-5-yl)-8-(1-(2-(methylsulfonyl)ethyl)azetidin-3-yl)-4,5-dihydrobenzo-2H-oxepino[4,5-d]pyrazole]",IC50,PI3K alpha (p110 alpha),0.66 nM
"Cc1nc(-c2cn3c(n2)-c2ccc(-c4cnn(CCO)c4)cc2OCC3)n(C(C)C)n1 [compound 186, 2-(4-(2-(1-isopropyl-3-methyl-1H-1,2,4-triazol-5-yl)-5,6-dihydrobenzo[f]imidazo[1,2-d][1,4]oxazepin-9-yl)-1H-pyrazol-1-yl)ethanol]",EC50,EVSA-T,2000 nM
same,EC50,KPL4,88 nM
same,EC50,BT474,324 nM
same,EC50,HCC1954,420 nM
same,EC50,AU565,470 nM
same,EC50,PC3,1300 nM
same,EC50,T47D,133 nM
same,EC50,SKBR3,860 nM
same,EC50,MFM223,1100 nM
same,EC50,MDA-MB-361.1,710 nM
same,EC50,H2122,2950 nM
"Cc1nc(-c2cn3c(n2)-c2ccc(-c4cnn(C(C)(C)C(N)=O)c4)cc2OCC3)n(C(C)C)n1 [compound 196, 2-(4-(2-(1-isopropyl-3-methyl-1H-1,2,4-triazol-5-yl)-5,6-dihydrobenzo[f]imidazo[1,2-d][1,4]oxazepin-9-yl)-1H-pyrazol-1-yl)-2-methylpropanamide]",EC50,KPL4,16 nM
same,EC50,BT474,86 nM
same,EC50,A375,10000 nM
same,EC50,HCC1954,128 nM
same,EC50,AU565,152 nM
same,EC50,T47D,45 nM
same,EC50,MDA-MB-361.1,178 nM
"CC(C)NC(=O)CN1CC(c2ccc3c(c2)OCCn2cc(-c4ncnn4C(C)C)nc2-3)C1 [compound 200, N-isopropyl-2-(3-(2-(1-isopropyl-1H-1,2,4-triazol-5-yl)-5,6-dihydrobenzo[f]imidazo[1,2-d][1,4]oxazepin-9-yl)azetidin-1-yl)acetamide]",IC50,PI3K alpha (p110 alpha),2 nM
"CC(C)n1ncnc1-c1cn2c(n1)-c1ccc(-c3cn(CCO)cn3)cc1OCC2 [compound 207, 2-(4-(2-(1-isopropyl-1H-1,2,4-triazol-5-yl)-5,6-dihydrobenzo[f]imidazo[1,2-d][1,4]oxazepin-9-yl)-1H-imidazol-1-yl)ethanol]",EC50,EVSA-T,1770 nM
same,EC50,MDST8,7790 nM
same,EC50,KPL4,1360 nM
same,EC50,U87MG,5770 nM
same,EC50,BT474,1680 nM
same,EC50,HCC1954,3390 nM
same,EC50,H520,1290 nM
same,EC50,AU565,3730 nM
same,EC50,PC3,762 nM
same,EC50,T47D,762 nM
same,EC50,MFM223,7250 nM
same,EC50,MDA-MB-361.1,≥ 10000 nM
same,EC50,KM12,≥ 10000 nM
same,EC50,H2122,≥ 10000 nM
"CNC(=O)C(C)(C)N1CCC(c2ccc3c(c2)OCCn2cc(-c4ncnn4C(C)C)nc2-3)CC1 [compound 248, 2-(4-(2-(1-isopropyl-1H-1,2,4-triazol-5-yl)-5,6-dihydrobenzo[f]imidazo[1,2-d][1,4]oxazepin-9-yl)piperidin-1-yl)-N,2-dimethylpropanamide]",IC50,PI3K alpha (p110 alpha),0.37 nM
"Cc1nc(-c2cn3c(n2)-c2ccc(-c4cnn(C(C)(C)C(=O)O)c4)cc2OCC3)n(C(C)C)n1 [compound 251, 2-(4-(2-(1-isopropyl-3-methyl-1H-1,2,4-triazol-5-yl)-5,6-dihydrobenzo[f]imidazo[1,2-d][1,4]oxazepin-9-yl)-1H-pyrazol-1-yl)-2-methylpropanoic acid]",IC50,PI3K alpha (p110 alpha),1.4 nM
"CC(C)n1nc(N)nc1-c1cn2c(n1)-c1ccc(F)cc1OCC2 [compound 253, 5-(9-fluoro-5,6-dihydrobenzo[f]imidazo[1,2-d][1,4]oxazepin-2-yl)-1-isopropyl-1H-1,2,4-triazol-3-amine]",IC50,PI3K alpha (p110 alpha),4.4 nM
"CC(C)n1ncnc1-c1cn2c(n1)-c1cnc(N3CCC[C@H]3C(N)=O)cc1OCC2 [compound 338, (2S)-1-(2-(1-isopropyl-1H-1,2,4-triazol-5-yl)-5,6-dihydroimidazo[1,2-d]pyrido[3,4-f][1,4]oxazepin-9-yl)pyrrolidine-2-carboxamide]",IC50,PI3K alpha (p110 alpha),0.32 nM
"Cc1nc(-c2cn3c(n2)-c2ccc(OC4COC4)cc2OCC3)n(C(C)C)n1 [compound 520, 2-(1-isopropyl-3-methyl-1H-1,2,4-triazol-5-yl)-9-(oxetan-3-yloxy)-5,6-dihydrobenzo[f]imidazo[1,2-d][1,4]oxazepine]",Ki,"PI3K alpha (p110 alpha); read-out: Ki, inhibition of PI3K alpha (binding to p110 alpha)",2.1 nM
